# Source: article PMC10800023 (Human Molecular Genetics, 2023)
# pEC50: −log10 of the molar value. Marks after values point to notes of the source that are not given here.
# What was measured:
# IL-1β = assay: LPS-induced IL-1β in cultured BMDM; assay type: cell-based; conditions: Mus musculus, corticosteroid overnight, LPS 10 ng/ml 3 h
# From the text: The immunosuppressive activity of corticosteroids is in part due to their inhibition of NF-κB-induced cytokines including TNF-α, IL-6, and IL-12. Furthermore, expression of some inflammatory-mediated proteins such as STAT1 is mediated via GREs, and not the NF-κB pathway. We therefore expanded murine bone marrow-derived macrophages (BMDM) in vitro, and after 5 days of culture tested the relative efficacy of different corticosteroids to prevent LPS-induced cytokine secretion.
# BMDM mouse bone marrow derived macrophage (mBMDM) cultures were generated from the femur and tibia from two 7–11-week-old C57BL/6 mice. Briefly, bone marrow cells were carefully flushed out, suspended in ice-cold PBS, and spun down. After the supernatant was removed, the pelleted cells were resuspended in 2 ml (ammonium-Chloride-Potassium) ACK lysis buffer (Thermo Fisher, Cat# A1049201) and incubated for 3–4 min, followed by 14 ml ice-cold PBS, and then spun down. The pelleted cells were resuspended in 43 ml complete media [Roswell Park Memorial Institute (RPMI 1640), Gibco, Cat# 11875-093; 10% heat-inactivated fetal bovine serum (HiFBS), HyClone, Cat# SH30406.02; 1% 2 mM L-glutamine; 1% penicillin-streptomycin, Sigma, Cat# P4333-100ML; 1% MEM NEAA, Gibco, Cat# 11140-050; 1% Na Pyruvate, Gibco, Cat# 11360-070; 55 μM 2-Mercaptoethanol, Gibco, Cat#21985-023]. A total of 25 ng/ml M-CSF was added to the culture. Cells were dispensed as 200 μl per well into a 96-well tissue culture plate and incubated at 37°C, 5% CO2 for 4 days. On Day 5, media were removed and 100 μl fresh complete media containing M-CSF were added. Corticosteroids were added and cells incubated at 37°C and 5% CO2 overnight. Untreated cells were incubated with media. On Day 6, 10 ng/ml of lipopolysaccharide (LPS) was added and incubated at 37°C and 5% CO2 for 3 h followed by removal of cell media for cytokine analysis. Cytokines were measured using a Meso Scale Discovery (MSD), V-PLEX kit (V-PLEX Cat# K-15048D, www.mesoscale.com).
# B10-mdx mice [1] = assay: Circulating lymphocytes and neutrophils (CBC) after 2 weeks (Study 1); assay type: in vivo, mouse
# Procedure: It is understood that part of the efficacy of corticosteroids is via their impact on leukocyte trafficking, resulting in a decrease in lymphocyte and an increase in neutrophil counts in the blood within hours of drug administration. Corticostetoids regulate leukocyte trafficking via changes in adhesion molecules and cytokines, which likely reflects inhibition of NF-κB [39, 40]. The effect of the three corticosteroids on leukocyte trafficking was assessed in B10-mdx mice after 2 weeks of dosing (Study 1). No significant differences in neutrophil-to-lymphocyte ratio were seen between wildtype and B10-mdx mice (Fig. 6a).
# Study 1: The goal of this study was to define the dose-response of each of the three corticosteroids. […] On Day 11, mice were fasted for 6 h and then blood was obtained to measure blood glucose. Blood glucose was measured using a glucometer (ACCU-CHECK) by tail bleeding. At the end of 14 days, mice were euthanized, and blood samples were evaluated for complete blood count (CBC) and plasma were collected for analysis of corticosterone levels, osteocalcin, creatine kinase, and cytokines. Brain, muscle, and liver were collected for RNAseq. The number of animals per group was as follows: WT, n = 15; B10-mdx, n = 11; corticosteroid-treated groups, n = 10–12.
# B10-mdx mice [2] = assay: Tail-suspension test 24 h after force-swim test (Study 2); assay type: in vivo, mouse; conditions: daily dosing 4 weeks, vs vehicle B10-mdx
# Procedure: Corticosteroid-treated mice were subjected to the force-swim test (FST) followed by the tail-suspension test (TST) 24 h later. During the TST, normal mice will struggle and constantly move. However, mice show depression-like behavior by quickly giving up, stop moving, and remaining still for a greater percentage of the time.
# Study 2: The goal of the second study was to evaluate corticosteroid side effects and efficacy in a longer study (4 months). After 28 days of dosing, mice were tested for depression-like behavior using a measure of corticosteroid-induced depression (FST followed by TST). Muscle function was tested via grip strength. Tests for depression and for grip-strength were done in a blinded manner. After 4 months, mice were euthanized, and tissues were collected. Bone from whole left leg was collected for micro-CT analysis. The number of animals per group was as follows: WT, n = 16; B10-mdx, n = 15; corticosteroid-treated groups, n = 8–10.
# • 1) Force-swim test: Animals were single housed and acclimated in the behavior room for 30 min prior to test. A clean 1-L beaker was filled with 700 to 800 ml of 23°C water. Each mouse was placed into the water for 6 min. The total immobility time was recorded. After the test, the animals were dried and placed in a cage on a heating pad for about 10 min before returning to the home cages. • 2) Tail-suspension test: Isolated mice were suspended 50 cm above the floor by surgical tape placed approximately 1 cm from the tip of the tail for 6 min. The total immobility time of mice was measured. Mice were considered immobile only when they hung passively and completely motionless.
# B10-mdx mice [3] = assay: Diaphragm hydroxyproline assay (Study 2); assay type: in vivo, mouse; conditions: 4 months
# Procedure: To determine muscle damage in B10-mdx mice and to evaluate the effects of the three corticosteroids on muscle, we used the hydroxyproline assay to measure the collagen content in diaphragm muscle tissue, a measure of muscle damage and fibrosis. […] Levels were reduced in mice treated with any of the three corticosteroids (Fig. 6d).
# Diaphragm muscles were dissected, weighed, and stored at −80°. Tissues were cut to avoid the tendon(s), and 10 ± 1 mg of tissue was homogenized through sonication. Water and hydrochloric acid (12 M) content were normalized prior to hydrolysis at 120° for 3 h in pressure-tight polypropylene vials. After boiling, the hydrolysates were centrifuged at 10 000 × g for 3 min, and 6-μl triplicates of the hydrolysate were added to clear 96-well plates for evaporation in a 60°C oven overnight. The following day, a hydroxyproline kit (Sigma, cat #MAK008) was used to determine the hydroxyproline content. In each sample and standard well, 100 μl Chloramine T/Oxidation buffer mixture was added, incubated for 5 min at room temperature, and followed with 100 μl of perchloric acid diluted DMAB concentrate. The plate was sealed and incubated in a 60°C oven for 90 min. The 96-well plates were read using a BioTek Epoch 2 Spectrophotometer at an absorbance of 560 nm.
# [4] = doses tested (deflazacort 1.25-15 mg/kg; vamorolone all doses 15, 30, 45 mg/kg)
smiles,measurement,setting,value
CC(=O)OCC(=O)[C@@]12N=C(C)O[C@@H]1C[C@H]1[C@@H]3CCC4=CC(=O)C=C[C@]4(C)[C@H]3[C@@H](O)C[C@@]12C [Deflazacort],pEC50,IL-1β,8.89
same,% decrease in fraction of lymphocytes at Day 14 from mdx vehicle,B10-mdx mice [1]; 1.25 mg/kg PO daily,(1%)
same,% increase in fraction of PMNs at Day 14,B10-mdx mice [1]; 1.25 mg/kg PO daily,3%
same,% decrease in fraction of lymphocytes at Day 14 from mdx vehicle,B10-mdx mice [1]; 2.5 mg/kg PO daily,5%
same,% increase in fraction of PMNs at Day 14,B10-mdx mice [1]; 2.5 mg/kg PO daily,32%*
same,% decrease in fraction of lymphocytes at Day 14 from mdx vehicle,B10-mdx mice [1]; 5 mg/kg PO daily,9%*
same,% increase in fraction of PMNs at Day 14,B10-mdx mice [1]; 5 mg/kg PO daily,41%*
same,% decrease in fraction of lymphocytes at Day 14 from mdx vehicle,B10-mdx mice [1]; 15 mg/kg PO daily,19%****
same,% increase in fraction of PMNs at Day 14,B10-mdx mice [1]; 15 mg/kg PO daily,82%****
same,immobilization time in tail suspension test,B10-mdx mice [2]; [4],did not increase
same,diaphragm hydroxyproline (fibrosis),B10-mdx mice [3]; 5 and 15 mg/kg,reduced fibrosis
C[C@]12C=CC(=O)C=C1CC[C@@H]1[C@@H]2[C@@H](O)C[C@@]2(C)[C@H]1CC[C@]2(O)C(=O)CO [Prednisolone],pEC50,IL-1β,8.52
same,% decrease in fraction of lymphocytes at Day 14 from mdx vehicle,B10-mdx mice [1]; 1.2 mg/kg PO daily,17%**
same,% increase in fraction of PMNs at Day 14,B10-mdx mice [1]; 1.2 mg/kg PO daily,64%**
same,% decrease in fraction of lymphocytes at Day 14 from mdx vehicle,B10-mdx mice [1]; 2.4 mg/kg PO daily,18%**
same,% increase in fraction of PMNs at Day 14,B10-mdx mice [1]; 2.4 mg/kg PO daily,81%***
same,% decrease in fraction of lymphocytes at Day 14 from mdx vehicle,B10-mdx mice [1]; 5 mg/kg PO daily,21%***
same,% increase in fraction of PMNs at Day 14,B10-mdx mice [1]; 5 mg/kg PO daily,92%****
same,immobilization time in tail suspension test,B10-mdx mice [2]; high dose (5 mg/kg),increased the immobilization time significantly
same,diaphragm hydroxyproline (fibrosis),B10-mdx mice [3]; 5 mg/kg,reduced fibrosis
C[C@@H]1C[C@H]2[C@@H]3CCC4=CC(=O)C=C[C@]4(C)C3=CC[C@]2(C)[C@@]1(O)C(=O)CO [Vamorolone],pEC50,IL-1β,7.49
same,% decrease in fraction of lymphocytes at Day 14 from mdx vehicle,B10-mdx mice [1]; 15 mg/kg PO daily,(0.5%)
same,% increase in fraction of PMNs at Day 14,B10-mdx mice [1]; 15 mg/kg PO daily,7%
same,% decrease in fraction of lymphocytes at Day 14 from mdx vehicle,B10-mdx mice [1]; 30 mg/kg PO daily,5%
same,% increase in fraction of PMNs at Day 14,B10-mdx mice [1]; 30 mg/kg PO daily,27%
same,% decrease in fraction of lymphocytes at Day 14 from mdx vehicle,B10-mdx mice [1]; 45 mg/kg PO daily,14%**
same,% increase in fraction of PMNs at Day 14,B10-mdx mice [1]; 45 mg/kg PO daily,70%**
same,immobilization time in tail suspension test,B10-mdx mice [2]; [4],increased the immobilization time significantly
same,diaphragm hydroxyproline (fibrosis),B10-mdx mice [3]; 45 mg/kg,did not reach significance
same,diaphragm hydroxyproline (fibrosis),B10-mdx mice [3]; 15 and 30 mg/kg,reduced fibrosis
